The values that follow are results of earlier work, collected in patent US20130129859A1, “DOSING PROTOCOLS FOR INCREASING PROTEIN SYNTHESIS IN AN ACTIVE INDIVIDUAL” (priority 2009, published 2013).

On to casein, for which, under “previously discussed study”, the Whole-body protein synthesis result was “best with casein”. The “Leucine balance, slow versus fast protein meal matched for leucine content” value (young, healthy subjects) was “higher leucine balance”.
